{"source": "paper PMC2851405", "about": "(Biochemistry, 2010)", "biological_target": "HPAO-1 (Ogataea angusta, UniProt P12807)", "sequence (P12807 whole entry)": "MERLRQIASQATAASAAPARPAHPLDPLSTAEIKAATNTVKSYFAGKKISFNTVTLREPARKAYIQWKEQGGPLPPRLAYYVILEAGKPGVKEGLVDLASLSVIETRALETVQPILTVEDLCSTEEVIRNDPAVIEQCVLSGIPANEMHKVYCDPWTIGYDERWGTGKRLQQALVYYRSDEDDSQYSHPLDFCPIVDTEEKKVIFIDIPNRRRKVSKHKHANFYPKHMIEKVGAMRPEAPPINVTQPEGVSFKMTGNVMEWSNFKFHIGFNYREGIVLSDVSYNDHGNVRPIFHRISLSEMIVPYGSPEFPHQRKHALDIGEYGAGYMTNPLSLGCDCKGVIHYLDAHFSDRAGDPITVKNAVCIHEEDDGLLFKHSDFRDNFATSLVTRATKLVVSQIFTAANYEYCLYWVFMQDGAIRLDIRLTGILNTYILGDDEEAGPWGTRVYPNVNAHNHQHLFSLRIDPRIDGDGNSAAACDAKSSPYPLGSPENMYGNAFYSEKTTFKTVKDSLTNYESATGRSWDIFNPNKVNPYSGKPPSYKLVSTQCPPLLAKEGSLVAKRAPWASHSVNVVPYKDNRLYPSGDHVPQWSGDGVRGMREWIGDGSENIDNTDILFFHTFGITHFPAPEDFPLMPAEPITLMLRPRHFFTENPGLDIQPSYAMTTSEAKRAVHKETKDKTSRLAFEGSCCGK", "experiment": "phenylhydrazone formation, absorbance", "assay_type": "binding", "conditions": "covalent; adduct with TPQ cofactor", "data": [{"smiles": "NNc1ccccc1", "note": "[phenylhydrazine]", "values": [{"measurement": "rate of phenylhydrazone formation", "value": "0.0078 ± 0.0007", "unit": "s⁻¹"}]}]}
